The subject of this assay is P388 leukemia ip, CD2F1 mice, survival T/C. Nature of the assay: NCI In Vivo Anticancer Drug Screen. Data for tumor model P388 Leukemia (intraperitoneal) in CD2F1 (CDF1) mice. The settings on record: endpoint: median survival time, higher = longer survival. In short, it runs like this:
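Mice carrying the transplanted tumor received test compound or vehicle. Survival was recorded in each group, and the value is the treated-group measurement divided by that of the vehicle-treated control group.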

Setting [1] is: dose: 100.0 mg/kg/injection, schedule: Q04DX002 (ip), vehicle: Klucel (hydroxypropylcellulose) (HPC).
Setting [2] is: dose: 50.0 mg/kg/injection, schedule: Q01DX009 (ip), vehicle: saline.
Setting [3] is: dose: 100.0 mg/kg/injection, schedule: Q01DX001 (ip), vehicle: Klucel (hydroxypropylcellulose) (HPC).
Setting [4] is: dose: 50.0 mg/kg/injection, schedule: Q01DX005 (ip), vehicle: saline with Tween-80.
Where [5] appears, read: dose: 100.0 mg/kg/injection, schedule: Q01DX005 (ip), vehicle: saline with Tween-80.
[6] abbreviates: dose: 200.0 mg/kg/injection, schedule: Q01DX005 (ip), vehicle: saline with Tween-80.
The mark [7] stands for this setting: dose: 60.0 mg/kg/injection, schedule: Q01DX005 (ip), vehicle: saline with Tween-80.
[8] abbreviates: dose: 100.0 mg/kg/injection, schedule: Q04DX003 (ip), vehicle: saline.
[9] abbreviates: dose: 200.0 mg/kg/injection, schedule: Q04DX003 (ip), vehicle: saline.
[10] abbreviates: dose: 400.0 mg/kg/injection, schedule: Q04DX003 (ip), vehicle: saline.
Setting [11] is: dose: 50.0 mg/kg/injection, schedule: Q01DX005 (ip), vehicle: Klucel (hydroxypropylcellulose) (HPC).
The mark [12] stands for this setting: dose: 100.0 mg/kg/injection, schedule: Q01DX005 (ip), vehicle: Klucel (hydroxypropylcellulose) (HPC).
The mark [13] stands for this setting: dose: 200.0 mg/kg/injection, schedule: Q01DX005 (ip), vehicle: Klucel (hydroxypropylcellulose) (HPC).
Setting [14] is: dose: 60.0 mg/kg/injection, schedule: Q01DX005 (ip), vehicle: saline.

The structures appear in SMILES notation. Several values for one entry are separate records, joined by “and”; a condition that tells them apart may be missing. Equal values may be shown once. Toxic doses and inconclusive results are not listed.

As to `CCCCN1COCO[C@H]2CCC[C@@H]21`, the T/C was 118 % of control under setting [1] and 122 % of control (dose: 200.0 mg/kg/injection, schedule: Q04DX002 (ip), vehicle: Klucel (hydroxypropylcellulose) (HPC)).

Turning to `CCCCCCC(/C=C/c1ccc(Cl)c(Cl)c1)=N\NC(N)=S`, the T/C is, setting by setting: under setting [2], 105 % of control; (dose: 100.0 mg/kg/injection, schedule: Q01DX009 (ip), vehicle: saline) 106 % of control; (dose: 200.0 mg/kg/injection, schedule: Q01DX009 (ip), vehicle: saline) 107 % of control.

`CCCCCOC(=O)CC(N)C(=O)OCCCCC` (stereo not drawn): the T/C is 100 % of control (dose: 50.0 mg/kg/injection, schedule: Q01DX009 (ip), vehicle: saline with Tween-80); 100 % of control (dose: 100.0 mg/kg/injection, schedule: Q01DX009 (ip), vehicle: saline with Tween-80); 90 % of control (dose: 200.0 mg/kg/injection, schedule: Q01DX009 (ip), vehicle: saline with Tween-80).

Regarding `Cn1c(=O)[nH]c(=O)c2nc(-c3ccccc3)cnc21`, the T/C runs as follows: under setting [1], 105 % of control; (dose: 400.0 mg/kg/injection, schedule: Q04DX002 (ip), vehicle: Klucel (hydroxypropylcellulose) (HPC)) 86 % of control.

Turning to `Cc1ccc(Cl)cc1NS(=O)(=O)c1ccc(Br)cc1`, the T/C is, setting by setting: (dose: 100.0 mg/kg/injection, schedule: Q04DX003 (ip), vehicle: saline with Tween-80) 100 % of control; (dose: 200.0 mg/kg/injection, schedule: Q04DX003 (ip), vehicle: saline with Tween-80) 100 % of control; (dose: 400.0 mg/kg/injection, schedule: Q04DX003 (ip), vehicle: saline with Tween-80) 104 % of control.

In the case of `O=C(O)CCCCOc1ccc(N(CCCl)CCCl)cc1`, the T/C under setting [3] is 123 % of control.

Regarding `O=C1OC(Cc2ccccc2)=C(Cl)C(Cl)(Cc2ccccc2)C1Cl` (stereo not drawn), the T/C by setting is: under setting [3], 100 % of control; (dose: 200.0 mg/kg/injection, schedule: Q01DX001 (ip), vehicle: Klucel (hydroxypropylcellulose) (HPC)) 108 % of control.

As to `CCCCN1C(=S)NC(OC)C1(C)C` (stereo not drawn), the T/C by setting is: (dose: 50.0 mg/kg/injection, schedule: Q01DX009 (ip), vehicle: suspension in saline) 100 % of control; (dose: 100.0 mg/kg/injection, schedule: Q01DX009 (ip), vehicle: suspension in saline) 94 % of control; (dose: 200.0 mg/kg/injection, schedule: Q01DX009 (ip), vehicle: suspension in saline) 100 % of control.

In the case of `OC1C2CCC(C2)C1CN1CCOCC1` (stereo not drawn), the T/C is 99 % of control (dose: 25.0 mg/kg/injection, schedule: Q01DX005 (ip), vehicle: saline with Tween-80); 99 % of control under setting [4]; 99 % of control under setting [5]; 96 % of control under setting [6].

Consider `CC(=O)O[C@]1(C(C)=O)CC[C@H]2[C@@H]3C[C@H](C)C4=CC(=O)NCC[C@]4(C)[C@H]3CC[C@@]21C`, for which the T/C was 98 % of control (dose: 50.0 mg/kg/injection, schedule: Q01DX005 (ip), vehicle: Klucel + Tween-80); 93 % of control (dose: 100.0 mg/kg/injection, schedule: Q01DX005 (ip), vehicle: Klucel + Tween-80); 94 % of control (dose: 200.0 mg/kg/injection, schedule: Q01DX005 (ip), vehicle: Klucel + Tween-80).

On to `CC1C(=O)OC(C(Cl)(Cl)Cl)N1C` (stereo not drawn), for which the T/C was 97 % of control under setting [7]; 97 % of control (dose: 120.0 mg/kg/injection, schedule: Q01DX005 (ip), vehicle: saline with Tween-80); 94 % of control (dose: 240.0 mg/kg/injection, schedule: Q01DX005 (ip), vehicle: saline with Tween-80).

In the case of `CC(=O)OC1C=CC(O)N(C(C)=O)C1SC1C2CC3CC(C2)CC1C3` (stereo not drawn), the T/C was 101 % of control under setting [8], 101 % of control under setting [9] and 108 % of control under setting [10].

Regarding `COc1ccc2c(c1)c(COC(C)=O)c(C)c[n+]2[O-]`, the T/C runs as follows: under setting [11], 100 % of control; under setting [12], 104 % of control; under setting [13], 88 % of control.

As to `COc1ccc(C2NC(c3ccc(OC)cc3)C3CCCC2C3=O)cc1` (stereo not drawn), the T/C is 102 % of control under setting [8], 93 % of control under setting [9] and 98 % of control under setting [10].

On to `CCOC(=O)c1cnc(=O)[nH]c1C(=O)OCC`, for which the T/C by setting is: under setting [11], 91 % of control; under setting [12], 100 % of control; under setting [13], 99 % of control.

As to `Cc1cccnc1Nc1ncccc1C`, the T/C runs as follows: under setting [14], 102 % of control; (dose: 120.0 mg/kg/injection, schedule: Q01DX005 (ip), vehicle: saline) 102 % of control; (dose: 240.0 mg/kg/injection, schedule: Q01DX005 (ip), vehicle: saline) 102 % of control.

Consider `Cc1cc(=O)n(-c2ccc(S(=O)(=O)Nc3nccs3)cc2)c(C)c1C(=O)O`, for which the T/C is, setting by setting: under setting [4], 103 % of control; under setting [5], 98 % of control; under setting [6], 100 % of control.

Regarding `C=C1CCN(c2ccc(F)cc2)C1=O`, the T/C by setting is: (dose: 4.0 mg/kg/injection, schedule: Q01DX009 (ip), vehicle: saline + alcohol) 100 % of control and 103 % of control and 90 % of control; (dose: 8.0 mg/kg/injection, schedule: Q01DX009 (ip), vehicle: saline + alcohol) 104 % of control and 107 % of control and 94 % of control; (dose: 16.0 mg/kg/injection, schedule: Q01DX009 (ip), vehicle: saline + alcohol) 110 % of control and 97 % of control; (dose: 32.0 mg/kg/injection, schedule: Q01DX009 (ip), vehicle: saline + alcohol) 98 % of control and 103 % of control and 104 % of control; (dose: 64.0 mg/kg/injection, schedule: Q01DX009 (ip), vehicle: saline + alcohol) 98 % of control and 100 % of control and 95 % of control.

On to `CNC(=O)OC1CC2CCCCC2C([N+](C)(C)C)C1` (stereo not drawn), for which the T/C (dose: 12.5 mg/kg/injection, schedule: Q01DX009 (ip), vehicle: saline) was 105 % of control; the T/C (dose: 25.0 mg/kg/injection, schedule: Q01DX009 (ip), vehicle: saline) is 112 % of control; the T/C under setting [2] was 100 % of control and 106 % of control.

`O=c1[nH]cc(CSc2ncc[nH]2)c(=O)[nH]1`: the T/C is 119 % of control (dose: 30.0 mg/kg/injection, schedule: Q01DX005 (ip), vehicle: saline); 119 % of control under setting [7]; 124 % of control under setting [14].

For `C=C(c1ccccc1)c1ccccc1-c1ccccc1C(=C)c1ccccc1`, the T/C reads like this: under setting [8], 99 % of control; under setting [9], 100 % of control; under setting [10], 98 % of control.

On to `CS(=O)(=O)OCC(COS(C)(=O)=O)(COS(C)(=O)=O)COS(C)(=O)=O`, for which the T/C by setting is: (dose: 50.0 mg/kg/injection, schedule: Q01DX009 (ip), vehicle: Klucel (hydroxypropylcellulose) (HPC)) 93 % of control; (dose: 100.0 mg/kg/injection, schedule: Q01DX009 (ip), vehicle: Klucel (hydroxypropylcellulose) (HPC)) 99 % of control; (dose: 200.0 mg/kg/injection, schedule: Q01DX009 (ip), vehicle: Klucel (hydroxypropylcellulose) (HPC)) 94 % of control.

Regarding `S=C1SC2=NCCN2C2=NCCN12`, the T/C (dose: 11.25 mg/kg/injection, schedule: Q01DX001 (ip), vehicle: Klucel (hydroxypropylcellulose) (HPC)) is 96 % of control; the T/C (dose: 22.5 mg/kg/injection, schedule: Q01DX001 (ip), vehicle: Klucel (hydroxypropylcellulose) (HPC)) is 102 % of control; the T/C (dose: 45.0 mg/kg/injection, schedule: Q01DX001 (ip), vehicle: Klucel (hydroxypropylcellulose) (HPC)) is 100 % of control.

For the compound `COc1ccc(C(=O)[Se][Se]C(=O)c2ccc(OC)cc2)cc1`, the T/C (dose: 6.25 mg/kg/injection, schedule: Q01DX009 (ip), vehicle: saline with Tween-80) was 100 % of control and the T/C (dose: 12.5 mg/kg/injection, schedule: Q01DX009 (ip), vehicle: saline with Tween-80) was 102 % of control.

`c1ccc2c(c1)[nH]c1c2c[n+]2c3c(cccc13)CCC2`: the T/C was 115 % of control (dose: 8.33 mg/kg/injection, schedule: Q01DX009 (ip), vehicle: saline) and 95 % of control (dose: 18.7 mg/kg/injection, schedule: Q01DX009 (ip), vehicle: saline).

Turning to `CCOc1ccc(/C=C/c2ccc3ccccc3[n+]2C)cc1OCC`, the T/C by setting is: (dose: 0.78 mg/kg/injection, schedule: Q01DX009 (ip), vehicle: saline with Tween-80) 102 % of control; (dose: 1.56 mg/kg/injection, schedule: Q01DX009 (ip), vehicle: saline with Tween-80) 111 % of control.

(Values after PubChem BioAssay AID330 (DTP/NCI, 2004).)
